Reference: patent US20240228491A1, “METHIONINE ADENOSYLTRANSFERASE INHIBITOR, PREPARATION METHOD THEREFOR AND APPLICATION THEREOF” (SCINNOHUB PHARMACEUTICAL CO., LTD., priority 2021, published 2024)

Target: MAT2a (Homo sapiens (Human), UniProt P31153)
Test: MAT2a enzymatic activity test (colorimetric assay)
Format: biochemical
Conditions: OD620, 150 min reaction, read-out: IC50 against MAT2a
Experimental: The Colorimetric assay method was used to detect the IC50 value of the tested compounds on MAT2a.
The specific steps were as follows: The compounds having the test starling concentration of 1 μM or 10 μM were diluted into 10 concentration points in a 3-fold gradient. 250 nL of the solutions of the compounds to be tested with 10 different concentrations were taken and added into a 384 well plate for later use. 20 μg/mL of MAT2a enzyme solution was prepared with Assay buffer (50 mM Tris, 50 mM KCl, 10 mM MgCl2, 0.05% polyoxyethylene lauryl ether, pH 8.0). 15 μL of the MAT2a enzyme solution at 20 μg/mL was add into the wells of the compounds to be tested at different concentrations; and 15 μL of Assay buffer was added into the negative control well. An incubation was carried out for 15 minutes after shaking for mixing well. A mixed substrate solution (comprising 400 μM ATP and 600 μM L-Methionine) was prepared with Assay buffer. 10 μL of the mixed substrate solution was added to the positive control well, the compound to be tested well, and the negative control well, respectively, and the reaction began, for a reaction time of 150 min. Then, 50 μL of the reaction stop solution (BIOMOL Green™ Reagent Enzo lifesciences, Cargo No. BML-AK111-1000) was added to stop the reaction, followed by being centrifuged at 1000 rpm for 60 s and then being incubated for 15 min. OD620 was read and data were processed.
By using the log value of the concentration as the X-axis and the inhibition % as the Y-axis, the IC50 value of each compound against enzyme activity was obtained through employing the log(inhibitor) vs. response-Variable slope fitting dose-effect curve of the analysis software GraphPad Prism 5.

Chain of MAT2a (P31153 whole entry): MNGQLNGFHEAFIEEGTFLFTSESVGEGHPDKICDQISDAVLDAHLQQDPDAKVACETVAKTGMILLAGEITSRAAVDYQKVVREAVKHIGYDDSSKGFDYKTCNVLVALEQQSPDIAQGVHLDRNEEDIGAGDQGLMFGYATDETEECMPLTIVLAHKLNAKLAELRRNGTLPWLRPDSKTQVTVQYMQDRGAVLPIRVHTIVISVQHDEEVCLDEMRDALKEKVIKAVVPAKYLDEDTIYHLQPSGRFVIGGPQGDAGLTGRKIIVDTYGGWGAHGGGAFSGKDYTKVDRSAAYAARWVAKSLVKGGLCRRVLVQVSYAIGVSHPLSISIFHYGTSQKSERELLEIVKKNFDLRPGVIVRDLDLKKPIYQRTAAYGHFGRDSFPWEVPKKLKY

SMILES | IC50
Nc1c(-n2ccnc2)c(=O)n(-c2ccc(Cl)cc2)c2nc(C(F)(F)F)ccc12 [Example 35] | 14.9 nM
CNc1c(-c2ccccc2)c(=O)n(-c2ccccc2)c2nc(C(F)(F)F)ccc12 [Example 13] | 32 nM
Nc1c(-c2ccc(=O)n(CC(F)(F)F)c2)c(=O)n(-c2ccc(Cl)cc2)c2nc(C(F)(F)F)ccc12 [Example 57] | 17.1 nM
Nc1c(-c2ccc3[nH]cnc3c2)c(=O)n(-c2ccc(Cl)cc2)c2nc(C(F)(F)F)ccc12 [Example 50] | 17.2 nM
Cn1nc2ccc(-c3c(N)c4ccc(C(F)(F)F)nc4n(-c4ccc(Cl)cc4)c3=O)cc2n1 [Example 64] | 15.4 nM
CNc1c(-c2ncco2)c(=O)n(-c2ccccc2)c2nc(C(F)(F)F)ccc12 [Example 7, 4-(methylamino)-3-(oxazol-2-yl)-1-phenyl-7-(trifluoromethyl)-1,8-naphthyridin-2(1H)-one] | 37.9 nM
CNc1c(-c2cccs2)c(=O)n(-c2ccccc2)c2nc(C(F)(F)F)ccc12 [Example 10] | 20.9 nM
Cc1cc(-c2c(N)c3ccc(C(F)(F)F)nc3n(-c3ccc(Cl)cc3)c2=O)ccn1 [Example 75] | 13.8 nM
Nc1c(-c2ccc3nncn3c2)c(=O)n(-c2ccc(Cl)cc2)c2nc(C(F)(F)F)ccc12 [Example 32] | 14.9 nM
Nc1c(-c2cc3nccnc3cn2)c(=O)n(-c2ccc(Cl)cc2)c2nc(C(F)(F)F)ccc12 [Example 59] | 25.4 nM
Cc1cc(-c2c(N)c3ccc(C(F)(F)F)nc3n(-c3ccc(Cl)cc3)c2=O)on1 [Example 16] | 41.9 nM
Nc1c(-c2ccn3cncc3c2)c(=O)n(-c2ccc(Cl)cc2)c2nc(C(F)(F)F)ccc12 [Example 71] | 18.5 nM
Nc1c(-c2cncs2)c(=O)n(-c2ccc(Cl)cc2)c2nc(C(F)(F)F)ccc12 [Example 33] | 20.2 nM
CNc1c(-c2cncs2)c(=O)n(-c2ccccc2)c2nc(C(F)(F)F)ccc12 [Example 29] | 25.2 nM
Nc1c(-c2ccc3cccnc3c2)c(=O)n(-c2ccc(Cl)cc2)c2nc(C(F)(F)F)ccc12 [Example 18] | 51.4 nM
Cn1cc(-c2c(N)c3ccc(C(F)(F)F)nc3n(-c3ccc(Cl)c(F)c3)c2=O)ccc1=O [Example 74] | 16.4 nM
CNc1c(-c2ccoc2)c(=O)n(-c2ccccc2)c2nc(C(F)(F)F)ccc12 [Example 9] | 21.4 nM
CNc1c(-c2nnco2)c(=O)n(-c2ccccc2)c2nc(C(F)(F)F)ccc12 [Example 6, 4-(methylamino)-3-(1,3,4-oxadiazol-2-yl)-1-phenyl-7-(trifluoromethyl)-1,8-naphthyridin-2(1H)-one] | 40.5 nM

SMILES | IC50
Nc1c(-c2ccn3ncnc3c2)c(=O)n(-c2ccc(Cl)cc2)c2nc(C(F)(F)F)ccc12 [Example 60] | 17 nM
Cc1ccc(-c2c(N)c3ccc(C(F)(F)F)nc3n(-c3ccc(Cl)cc3)c2=O)o1 [Example 14] | 22.9 nM
CN(C)CCn1cc2cc(-c3c(N)c4ccc(C(F)(F)F)nc4n(-c4ccc(Cl)cc4)c3=O)ccc2n1 [Example 72] | 16.5 nM
Nc1c(-c2ccc3cncnc3c2)c(=O)n(-c2ccc(Cl)cc2)c2nc(C(F)(F)F)ccc12 [Example 70] | 30.5 nM
Nc1c(-c2ccccc2)c(=O)n(-c2ccc(Cl)cc2)c2nc(C(F)(F)F)ccc12 [Example 65] | 15.2 nM
Cn1ncc2cc(-c3c(N)c4ccc(C(F)(F)F)nc4n(-c4ccc(Cl)cc4)c3=O)ccc21 [Example 66] | 16 nM
CS(=O)(=O)CCn1cc2cc(-c3c(N)c4ccc(C(F)(F)F)nc4n(-c4ccc(Cl)cc4)c3=O)ccc2n1 [Example 51] | 16.2 nM
Cn1c(N)nc2ccc(-c3c(N)c4ccc(C(F)(F)F)nc4n(-c4ccc(Cl)cc4)c3=O)cc21 [Example 37] | 20.2 nM
Nc1c(-c2ccc3nn[nH]c3c2)c(=O)n(-c2ccc(Cl)cc2)c2nc(C(F)(F)F)ccc12 [Example 62, 4-amino-3-(1H-benzo[d][1,2,3]triazol-6-yl)-1-(4-chlorophenyl)-7-(trifluoromethyl)-1,8-naphthyridin-2(1H)-one] | 16.1 nM
CNc1c(-c2ccco2)c(=O)n(-c2ccccc2)c2nc(C(F)(F)F)ccc12 [Example 11] | 21.4 nM
CNc1c(-c2cncs2)c(=O)n(-c2ccc(Cl)cc2)c2nc(C(F)(F)F)ccc12 [Example 12] | 25.8 nM
CNc1c(-c2nccs2)c(=O)n(-c2ccccc2)c2nc(C(F)(F)F)ccc12 [Example 2, 4-(methylamino)-1-phenyl-3-(thiazol-2-yl)-7-(trifluoromethyl)-1,8-naphthyridin-2(1H)-one] | 26.1 nM
COc1ccc(-c2c(N)c3ccc(C(F)(F)F)nc3n(-c3ccc(Cl)cc3)c2=O)nc1 [Example 61] | 17 nM
CN(C)CCn1ncc2cc(-c3c(N)c4ccc(C(F)(F)F)nc4n(-c4ccc(Cl)cc4)c3=O)ccc21 [Example 73] | 18.8 nM
Cn1cccc1-c1c(N)c2ccc(C(F)(F)F)nc2n(-c2ccc(Cl)cc2)c1=O [Example 28] | 25.3 nM
CNc1c(-c2ncc[nH]2)c(=O)n(-c2ccccc2)c2nc(C(F)(F)F)ccc12 [Example 8, 3-(1H-imidazol-2-yl)-4-(methylamino)-1-phenyl-7-(trifluoromethyl)-1,8-naphthyridin-2(1H)-one] | 8.7 nM
N#Cc1ccc(-c2c(N)c3ccc(C(F)(F)F)nc3n(-c3ccc(Cl)cc3)c2=O)cc1 [Example 40] | 26.3 nM
Nc1c(-c2ccc3ccccc3c2)c(=O)n(-c2ccc(Cl)cc2)c2nc(C(F)(F)F)ccc12 [Example 58] | 17.4 nM

Now from value to molecule:

IC50 | SMILES
15.9 nM | Nc1c(-c2ccc3c(c2)OCO3)c(=O)n(-c2ccc(Br)cc2)c2nc(C(F)(F)F)ccc12 [Example 86]
13.9 nM | Nc1c(-c2ccnc(C(F)(F)F)c2)c(=O)n(-c2ccc(Cl)cc2)c2nc(C(F)(F)F)ccc12 [Example 77]
28.2 nM | Nc1c(-c2ccc(F)cc2)c(=O)n(-c2ccc(Br)cc2)c2nc(C(F)(F)F)ccc12 [Example 84]
15.2 nM | COc1ccc(-c2c(N)c3ccc(C(F)(F)F)nc3n(-c3ccc(Br)cc3)c2=O)nc1 [Example 85]
18 nM | COc1ccc(-c2c(N)c3ccc(C(F)(F)F)nc3n(-c3ccc(Br)cc3)c2=O)cc1 [Example 79, 4-amino-1-(4-bromophenyl)-3-(4-methoxyphenyl)-7-(trifluoromethyl)-1,8-naphthyridin-2(1H)-one]
16.3 nM | N#Cc1cc(-c2c(N)c3ccc(C(F)(F)F)nc3n(-c3ccc(Cl)cc3)c2=O)ccn1 [Example 76]
18 nM | Cc1ccc(-n2c(=O)c(-c3ccnc(C)c3)c(N)c3ccc(C(F)(F)F)nc32)cc1 [Example 91]
14 nM | Cn1cc(-c2c(N)c3ccc(C(F)(F)F)nc3n(-c3ccc(Cl)cc3F)c2=O)ccc1=O [Example 78]
16.5 nM | Cc1ccc(-n2c(=O)c(-c3ccc4nn(C)cc4c3)c(N)c3ccc(C(F)(F)F)nc32)cc1 [Example 89]
15.4 nM | COc1cc(-c2c(N)c3ccc(C(F)(F)F)nc3n(-c3ccc(C)cc3)c2=O)ccn1 [Example 87]
17.2 nM | Nc1c(-c2ccc3nccnc3c2)c(=O)n(-c2ccc(Br)cc2)c2nc(C(F)(F)F)ccc12 [Example 83]
16 nM | Cc1ccc(-n2c(=O)c(-c3ccc4c(c3)OCCO4)c(N)c3ccc(C(F)(F)F)nc32)cc1 [Example 88]
17.4 nM | Cn1cc2cc(-c3c(N)c4ccc(C(F)(F)F)nc4n(-c4ccc(Br)cc4)c3=O)ccc2n1 [Example 92]
16.3 nM | COc1ccc(-c2c(N)c3ccc(C(F)(F)F)nc3n(-c3ccc(Br)cc3)c2=O)cn1 [Example 93]
17 nM | Cc1ccc(-n2c(=O)c(-n3cccn3)c(N)c3ccc(C(F)(F)F)nc32)cc1 [Example 81]
16.9 nM | Cc1ccc(-n2c(=O)c(-c3ccn4ncnc4c3)c(N)c3ccc(C(F)(F)F)nc32)cc1 [Example 90]
16 nM | Cc1ccc(-n2c(=O)c(-n3cncn3)c(N)c3ccc(C(F)(F)F)nc32)cc1 [Example 82]

System: HCT116 MTAP-/- cells
Test: Activity test of HCT116 MTAP gene homozygous deletion cells (CellTiter-Glo)
Format: cell-based
Conditions: Homo sapiens, HCT-116, 120 h incubation, read-out: HCT116 MTAP-/- Cell IC50
Experimental: On day 1, cell seeding: after digestion of the cells with trypsin, the cells were resuspended to the desired density with the complete medium (RPMI-1640 supplemented with 10% FBS; the brand of FBS is EXCELL, Cat. No. FND500; the brand of RPMI-1640 is ATCC, Cat. No. 30-2001), mixed evenly, and added into the 96-well plate at 100 μL/well with a cell density of 1000-3000 cells per well. The plate was put back to the incubator for the adherent growth of cells. On day 2, the addition of the compounds to be tested: before the addition of the compounds, the cells were starved with serum-free medium for 4 h, then the complete medium containing the corresponding concentration of compounds was added thereto, and the cells were incubated at 37° C., 5% CO2 for 120 h. On day 7, the cell culture plates were taken out from incubator and equilibrated to room temperature. 50 μL of CellTiter-Glo (Promega Company, Cat. No. G7571) reagent was added per well, and the cells were fully lysed by shaking at room temperature for 2 min, and then incubated for another 60 min to detect the fluorescence intensity. Calculation formula:
% Inhibition=100−(signal of the well with the compound to be tested−signal of the well with only medium and free of cells)/(signal of the well with cells but without addition of the compound−signal of the well with only medium and free of cells)×100.
The fitting dose-effect curve of the analysis software GraphPad Prism 5 was used to give IC50 values of the individual compounds against cellular activity.

SMILES | IC50
CNc1c(-c2ccccc2)c(=O)n(-c2ccccc2)c2nc(C(F)(F)F)ccc12 [Example 13] | 638 nM
Cn1nc2ccc(-c3c(N)c4ccc(C(F)(F)F)nc4n(-c4ccc(Cl)cc4)c3=O)cc2n1 [Example 64] | 10.7 nM
CNc1c(-c2ncco2)c(=O)n(-c2ccccc2)c2nc(C(F)(F)F)ccc12 [Example 7, 4-(methylamino)-3-(oxazol-2-yl)-1-phenyl-7-(trifluoromethyl)-1,8-naphthyridin-2(1H)-one] | 800 nM
CNc1c(-c2cncs2)c(=O)n(-c2ccccc2)c2nc(C(F)(F)F)ccc12 [Example 29] | 427 nM
CNc1c(-c2nnco2)c(=O)n(-c2ccccc2)c2nc(C(F)(F)F)ccc12 [Example 6, 4-(methylamino)-3-(1,3,4-oxadiazol-2-yl)-1-phenyl-7-(trifluoromethyl)-1,8-naphthyridin-2(1H)-one] | 494 nM

Further lines, results first:

IC50 | SMILES
10.9 nM | COc1ccc(-c2c(N)c3ccc(C(F)(F)F)nc3n(-c3ccc(Br)cc3)c2=O)cc1 [Example 79, 4-amino-1-(4-bromophenyl)-3-(4-methoxyphenyl)-7-(trifluoromethyl)-1,8-naphthyridin-2(1H)-one]
9.77 nM | COc1cc(-c2c(N)c3ccc(C(F)(F)F)nc3n(-c3ccc(C)cc3)c2=O)ccn1 [Example 87]
9.12 nM | Nc1c(-c2ccc3nccnc3c2)c(=O)n(-c2ccc(Br)cc2)c2nc(C(F)(F)F)ccc12 [Example 83]
